The values that follow come from patent US7423181B2, “Aminoalkoxy-functional chalcones” (Lica Pharmaceuticals A/S, priority 2002, dated 2008).

The structures appear in SMILES notation. Values after ≈ are worked out from the molar mass of the structure shown. Like-named read-outs stand apart in the source and are kept apart here.

Data set [1] concerns panel of six strains Helicobacter pylori. Description: MIC determination against Helicobacter pylori (agar dilution). Particulars: read-out: MICs against Helicobacter pylori. Background: Agar dilution tests growth on a series of plates holding different concentrations.
Data set [2] deals with panel of 10 different non-fastidious bacteria. Description: Screening against panel of non-fastidious bacteria.
Another data set has as its system S.aureus ATCC29213. Particulars: time-kill curve FIG. 3, S.aureus ATCC29213.
For data set [3], the system named is Staphylococcus aureus ATCC29213. Description: MIC determination in broth microdilution assay. To be noted: A: Staphylococcus aureus ATCC29213. On the technique in general: In broth dilution the organism is exposed to a series of concentrations in liquid medium.
The subject of data set [4] is Enterococcus faecalis ATCC29212. The data set can be described thus: MIC determination in broth microdilution assay. Particulars: D: Enterococcus faecalis ATCC29212.
Data set [5] concerns Streptococcus pneumoniae #998 (clinical isolate). The data set can be described thus: MIC determination in broth microdilution assay. To be noted: F: Streptococcus pneumoniae #998.
Data set [6] relates to Enterococcus faecium #17501 (vancomycin-resistant clinical isolate). The data set can be described thus: MIC determination in broth microdilution assay. Particulars: E: Enterococcus faecium #17501 (vancomycin-resistant).
In the next data set the test system is S.aureus ATCC33591. To be noted: time-kill curve FIG. 2, S.aureus ATCC33591.
Another data set relates to Eschericia coli ESS. Description: MIC determination in broth microdilution assay. To be noted: H: Eschericia coli ESS.
Data set [7] deals with Staphylococcus aureus ATCC33591(resistant to methicillin). Description: MIC determination in broth microdilution assay. Particulars: B: Staphylococcus aureus ATCC33591(resistant to methicillin).
A short description of data set [8]: Determination of metabolic stability (liver microsomes). The class given is in vitro ADME. Particulars: rat liver microsomes, 20 μM, 15 min. How it is done:
Determination of Metabolic Stability
Incubations were performed with Wistar rat liver microsomes (0.25 mg/ml) in 2% sodium bicarbonate solution. NADP (0.13 mg/ml), glucose-6-phosphate (0.63 mg/ml) and glucose-6-phosphate dehydrogenase (0.38 units/ml) were used as NADPH generation system and UDPGA (0.48 mg/ml) was added to include the phase II reaction, glucuronic acid conjugation, in the assay. After 5 minutes of pre-incubation the reaction was started by addition of the test article to give a final concentration of 20 μM. Samples were incubated for 15 min at 37° C. and the reactions were terminated by addition of equal volumes of acetonitrile. Blank incubations were performed at the same concentration but without addition of microsomes. Both blank and microsome-containing samples were made in replicats of three. Prior to analysis samples were centrifuged for 10 min. at 3500 rpm,HPLC system:
Initial conditions were 40% mobile phase A (acetonitrile) and 60% mobile phase B (10 mM ammonium acetate pH 9.5). During the first 20 minutes, the mobile phase was changed via a linear gradient to 90% A and 10% B. This was followed by a 5 minutes linear gradient to initial conditions, which were maintained for 5 min. The flow rate was 0.20 m)/min and injection volume 10 μl.

For another data set, the system named is P.yoelii and P.berghei. To be noted: cited from earlier work.
For data set [9], the system named is parasitic or bacterial infections. Description: In vivo potency of chalcones.
A short description of data set [10]: Determination of solubility. To be noted: reference chalcones. The class given is physicochemical. How it is done:
Determination of Solubility
Solubility of the compounds was determined by preparing a saturated solution of compound in 0.3 M phosphate buffer (pH 7.4±0.3) in a brown glass tube. The suspensions were rotated slowly for 24 hours. Aliquots were centrifuged for 10 minutes at 14.000 rpm and supernatants were diluted in 40% (v/v) acetonitrile in water prior to HPLC analysis. Concentrations of analytes were quantified against a standard curve and used as term of solubility. The HPLC-UV method used for the assessment of solubility is the same as used in the in vitro metabolism assay.

Another data set in a line: Pharmacokinetic studies. The data set is classed as in vivo, mice. How it is done:
Samples of serum were taken at defined timepoints.
The supernatant was used for the analysis.
The flow rate was […], injection volume 10 μl.

For data set [11], the system named is dihydroorotate dehydrogenase (DHODH). The data set can be described thus: DHODH assay. The class given is biochemical. To be noted: at 10 μM. How it is done:
100 μl chalcone or 0.1 M Tris-HCl pH 8.0 is added to a well in a 96-wells microtiter plate. Then 50 μl enzyme dilution is added. The microtiter plate is placed in the Powerwavex340 and the enzymatic reactions starts when adding 100 μl assay mixture. The reaction are measured every 20 sec. for 10 min. The samples with chalcones are compared with the samples with 0.1 M Tris-HCl pH 8.0 and the percent inhibition is calculated.
Enzyme dilution: The solution of recombinant purified enzyme is dissolved in 0.1 M Tris-HCl pH 8 to give an initial velocity of 0.04-0.05 ΔA/min.
2,6-dichlorophenolindophenol (DCIP)-stock solution: 40 mg DCIP and 10 ml 99% Ethanol are mixed for 10 min at RT. Then 100 μl 1.0 M Tris-HCl pH 8 and miliQ H2O are added to a final volume of 100 ml. The A600 of the DCIP-stock solution are measured in a microtiter plate on the Powerwavex340 (Bio-Tek instruments,Inc.)
[…]: 25 mM dihydroorotate stock-solution is prepared by first dissolving in the same amount of mol NaOH and then miliQ H2O is added to the final volume.
Assay mix (10 ml solution): 600 μl of DHODH-stock solution and X ml (depending on the A600 value of stock-solution) DCIP to a final A600=2.5 are mixed. Then 0.1 M Tris-HCl pH 8.0 are added to a final volume of 10 ml.
Preparation of compound soluton: A 10 mM stock-solution of compound (e.g. a chalcone derivative) is made in dimethylsulfoxid (DMSO). The compound is then diluted in 0.1 M Tris-HCl pH 8 to the test concentrations. The final DMSO concentration in the sample is 10%

Data set [12] has as its system cutaneous and visceral Leishmania infection. Particulars: cited from earlier work.
For data set [13], the system named is Plasmodium falciparum 7G8(Cq-res). Particulars: read-out: Plasmodium falciparum IC50.
The test system of data set [14] is Plasmodium falciparum 3D7. Description: Plasmodium falciparum assay. The data set is classed as cell-based.
The test system of data set [15] is Plasmodium falciparum DD2(Cq-res). Particulars: read-out: Plasmodium falciparum IC50.
For the next data set, the system named is Plasmodium berghei K173. To be noted: multiple oral administrations, NMRI female mice, FIG. 7.
For data set [16] the following is noted: mice.
Data set [17] relates to Plasmodium falciparum K1(Cq-res). Particulars: read-out: Plasmodium falciparum IC50.

`CC(=O)Nc1cccc(C(=O)/C=C/c2cc(-c3cc(C)cc(C)c3)ccc2OCCN(C)C)c1` [Compound C088, N-(3-{3-[4-(2-Dimethylamino-ethoxy)-3′,5′-dimethyl-biphenyl-3-yl]-(E)-acryloyl}-phenyl)-acetamide]: the MIC in data set [1] lay within 12 to 25 µM (≈ 5.48 to 11.4 µg/mL).

Consider `CCN(CC)Cc1ccccc1C(=O)/C=C/c1cc(-c2cc(C)cc(C)c2)ccc1OCCN(C)C` [Compound C030, (E)-1-(2-Diethylaminomethyl-phenyl)-3-[4-(2-dimethylamino-ethoxy)-3′,5′-dimethyl-biphenyl-3-yl]-propenone], for which the “potency against Gram-positive pathogens in comparison with Licochalcone A” value in [2] is “increased potency”. Besides, in the data set on S.aureus ATCC29213, the MIC worked out at 18.8 µM (≈ 9.11 µg/mL) and the “bactericidal action (CFU counts per ml above the MIC)” value is listed as “bactericidal”.

As to `COc1ccc(C(=O)/C=C/c2cc(-c3cc(C)cc(C)c3)ccc2OCCN(C)C)cc1` [Compound C023, (E)-3-[4-(2′-Dimethylamino-ethoxy)-3′,5′-dimethyl-biphenyl-3-yl]-1-(4-methoxy-phenyl)-propenone], the MIC in data set [3] is 4.7 µM (≈ 2.02 µg/mL); in data set [4] it was 4.7 µM (≈ 2.02 µg/mL); in data set [5], 18.8 µM (≈ 8.08 µg/mL); in [6], 4.7 µM (≈ 2.02 µg/mL); against S.aureus ATCC33591 it was 9.4 µM (≈ 4.04 µg/mL); in the data set on Eschericia coli ESS, 9.4 µM (≈ 4.04 µg/mL). In data set [7], this compound gave an MIC of 4.7 µM (≈ 2.02 µg/mL). For the same compound, the “potency against Gram-positive pathogens in comparison with Licochalcone A” value in [2] was “increased potency”. In the data set with S.aureus ATCC33591, the “bactericidal action (CFU counts per ml above the MIC)” value is given as “bactericidal”.

For orientation: bioavailability means dose-corrected exposure relative to a reference, in per cent. For `C=CC(C)(C)c1cc(/C=C/C(=O)c2ccc(O)cc2)c(OC)cc1O` [LicA, Licochalcone A], the “Metabolic turn-over in vitro” value in data set [8] and in [8] (listed as Lica) was 100% throughout. In addition, the MIC was determined as 37.5 µM (≈ 12.7 µg/mL) in data set [3]; 37.5 µM (≈ 12.7 µg/mL) in data set [4]; 75.0 µM (≈ 25.4 µg/mL) in [5]; 37.5 µM (≈ 12.7 µg/mL) in [6]; 300.0 µM (≈ 102 µg/mL) against Eschericia coli ESS; 37.5 µM (≈ 12.7 µg/mL) in [7]. In addition, the “protection of mice from infection” value in the data set with P.yoelii and P.berghei is “protects mice from infection with P.yoelii and P.berghei”. For the same compound, the “bactericidal activity against common pathogenic Gram-positive non-fastidious bacteria” value in data set [2] (Gram-positive bacteria) is given as “moderate bactericidal activity”. The “activity against Eschericia coli” value in [2] (prototype pathogenic Gram-negative bacterium) is recorded as “modest or no activity”. In data set [9], this compound gave an in vivo potency of 50 mg/kg. Moreover, the aqueous solubility result in data set [10] was “approximately 0.01 mg/ml”. The bioavailability in the data set “Pharmacokinetic studies” (in mice) was < 6%. In “Pharmacokinetic studies” (in vivo), this compound registered a t1/2 in vivo of 10 min. In data set [11], the “Inhibition of DHODH” value turned out to be 25%. In data set [12], the “efficacy in experimental animal models” value was “efficacy in experimental animal models of cutaneous and visceral Leishmania infection”.

The IC50 is the concentration that inhibits the measured activity by half. Regarding `CN(C)CCOc1ccc(-c2ccccc2C(F)(F)F)cc1/C=C/C(=O)c1ccccc1CN(C)C` [Compound C130, (E)-3-[4-(2-Dimethylamino-ethoxy)-2′-trifluoromethyl-biphenyl-3-yl]-1-(2-dimethylaminomethyl-phenyl)-propenone], the IC50 in [13] is 50 nM; in [14] (3D7(Cq-sen) (Table 3), read-out: Plasmodium falciparum IC50), 30 nM; in [14] (Plasmodium falciparum 3D7 (Table 2), read-out: IC50) it was 30 nM; in data set [15] it was 60 nM; in data set [17], 40 nM. In addition, the “Metabolic turn-over in vitro” value in [8] is recorded as 6%. For the same compound, the “times more potent than LicA” value in data set [14] (dose-response curve at Plasmodium falciparum, FIG. 4) came out at 213 times. The “effect on development of the infection” value in the data set on Plasmodium berghei K173 is reported as “inhibit the development of the infection”. For the same compound, the Metabolic turn-over in [16] turned out to be 77%.
